Data on nine compounds can be found in PubChem BioAssay (NCI).

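Briefly, cells in 96-well plates were exposed to five compound concentrations for 48 h, and endpoints were estimated by linear interpolation. TGI marks complete inhibition of growth.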

Test systems include MDA-MB-435; EKVX NSCLC; UACC-257 melanoma; HS 578T breast; SF-295 CNS; RPMI-8226 leukemia; TK-10 renal; SNB-19 CNS; PC-3 prostate; K-562 leukemia; ACHN renal; KM12 colon; SK-MEL-5 melanoma; SK-MEL-2 melanoma; OVCAR-8 ovarian.
What all share (assay): growth of human tumour cells (NCI), 48 h

On to `CC(C)NC(=O)OCc1c(COC(=O)NC(C)C)c(-c2cc[n+](COC(=O)C(C)(C)C)cc2)n2c1CCC2`, for which the TGI in the assay on MDA-MB-435, in the assay on EKVX NSCLC, in the assay on UACC-257 melanoma, in the assay on HS 578T breast, with SF-295 CNS and with RPMI-8226 leukemia was over 100 µM each time. Also, the TGI in the assay on TK-10 renal, in the assay on SNB-19 CNS, with PC-3 prostate, in the assay on K-562 leukemia, with ACHN renal and in the assay with KM12 colon was over 100 µM in each case. Further, the TGI with SK-MEL-5 melanoma, in the assay on SK-MEL-2 melanoma and with OVCAR-8 ovarian was over 100 µM in each case.
As for `CCOC(=O)[C@@]12C[C@](/C=C/OC)(O[Si](C)(C)C)[C@@]13c1cc(OC)c(OC)cc1CCN3C(=O)C2O` (stereo not given in full), the TGI in the assay with MDA-MB-435, with EKVX NSCLC, with UACC-257 melanoma, in the assay on HS 578T breast, with SF-295 CNS and with RPMI-8226 leukemia was over 100 µM in each case. The TGI with TK-10 renal, in the assay on SNB-19 CNS, with PC-3 prostate, with K-562 leukemia, in the assay on ACHN renal and in the assay with KM12 colon was over 100 µM in each case. The TGI with SK-MEL-5 melanoma, in the assay with SK-MEL-2 melanoma and with OVCAR-8 ovarian was over 100 µM each time.
On to `CN(C)CCN=C1Nc2ccccc2C(=S)N2CSCC12` (stereo not given), for which the TGI with MDA-MB-435, with EKVX NSCLC, in the assay with UACC-257 melanoma, with HS 578T breast, in the assay on SF-295 CNS and in the assay on RPMI-8226 leukemia was over 100 µM in each case. Moreover, the TGI in the assay on TK-10 renal, in the assay with SNB-19 CNS, in the assay with PC-3 prostate, in the assay with K-562 leukemia, with ACHN renal and in the assay with KM12 colon was over 100 µM in each case. In addition, the TGI with SK-MEL-5 melanoma, in the assay on SK-MEL-2 melanoma and in the assay with OVCAR-8 ovarian was over 100 µM throughout.
For `COc1ccc(OCc2ccc3nc(-c4ccccc4)c(Cl)nc3c2)cc1`, the TGI was over 100 µM with MDA-MB-435; over 100 µM in the assay with EKVX NSCLC; over 100 µM with UACC-257 melanoma; over 100 µM in the assay with HS 578T breast; 62.1 µM in the assay on SF-295 CNS; over 100 µM with RPMI-8226 leukemia. The TGI with TK-10 renal is 55.3 µM; in the assay with SNB-19 CNS, 68.2 µM; in the assay on PC-3 prostate, over 100 µM; with K-562 leukemia, over 100 µM; in the assay on ACHN renal, over 100 µM; with KM12 colon it was over 100 µM. For the same compound, the results for the TGI in the assay on SK-MEL-5 melanoma, with SK-MEL-2 melanoma and in the assay on OVCAR-8 ovarian were 25.8 µM, over 100 µM and over 100 µM, respectively.
Consider `CC1Oc2c(c(=O)oc3ccccc23)[C@@]1(C)CC1C[C@H](C)C(=O)O1` (stereo not given in full), for which the TGI is 47.8 µM in the assay on MDA-MB-435; over 100 µM with EKVX NSCLC; over 100 µM in the assay on UACC-257 melanoma; over 100 µM with HS 578T breast; over 100 µM in the assay with SF-295 CNS; 77.4 µM with RPMI-8226 leukemia. Also, the TGI in the assay on TK-10 renal is over 100 µM; in the assay with SNB-19 CNS, over 100 µM; in the assay on PC-3 prostate it was over 100 µM; in the assay with K-562 leukemia, 66 µM; in the assay with ACHN renal, 65.8 µM; with KM12 colon it was over 100 µM. Also, the TGI with SK-MEL-5 melanoma, in the assay on SK-MEL-2 melanoma and with OVCAR-8 ovarian was over 100 µM throughout.
Consider `CC(=O)CSc1c(-c2ccccc2)c(=O)n(-c2ccccc2)c(=S)n1-c1ccccc1`, for which the TGI in the assay on MDA-MB-435, with EKVX NSCLC, in the assay with UACC-257 melanoma, in the assay on HS 578T breast, in the assay with SF-295 CNS and in the assay with RPMI-8226 leukemia was over 100 µM in each case. Also, the TGI in the assay with TK-10 renal, in the assay with SNB-19 CNS, in the assay on PC-3 prostate, in the assay on K-562 leukemia, in the assay on ACHN renal and in the assay on KM12 colon was over 100 µM each time. Moreover, the TGI with SK-MEL-5 melanoma, in the assay on SK-MEL-2 melanoma and in the assay with OVCAR-8 ovarian was over 100 µM in each case.
`CN(C)P(=O)(Oc1ccc(CC(NC(=O)OCc2ccccc2)C(=O)OCc2ccccc2)cc1)N(C)C` (stereo not given): the TGI with MDA-MB-435 is 25.7 µM; in the assay on EKVX NSCLC, 32.2 µM; with UACC-257 melanoma, 47.5 µM; in the assay with HS 578T breast, 67.5 µM; in the assay with SF-295 CNS, 34.5 µM; in the assay on RPMI-8226 leukemia, 15.2 µM. Besides, the TGI was determined as 47 µM in the assay on TK-10 renal; 38.6 µM in the assay on SNB-19 CNS; 29.9 µM in the assay on PC-3 prostate; 64.1 µM in the assay on K-562 leukemia; 33.9 µM in the assay with ACHN renal; 40.3 µM in the assay with KM12 colon. Moreover, the TGI came to 38.1 µM in the assay with SK-MEL-5 melanoma, 31.5 µM in the assay on SK-MEL-2 melanoma and 33.2 µM with OVCAR-8 ovarian.
Turning to `COc1ccc(C(CC(=O)C(C)(C)CN2CCCCC2)SCCS(=O)(=O)O)cc1` (stereo not given), the TGI in the assay on MDA-MB-435 is 52.3 µM; in the assay on EKVX NSCLC, over 100 µM; in the assay with UACC-257 melanoma, over 100 µM; in the assay with HS 578T breast, over 100 µM; in the assay on SF-295 CNS, over 100 µM; in the assay on RPMI-8226 leukemia it was 63.9 µM. The TGI with TK-10 renal, in the assay with SNB-19 CNS, in the assay on PC-3 prostate, in the assay with K-562 leukemia, in the assay on ACHN renal and in the assay with KM12 colon was over 100 µM each time. Also, the TGI is 62.5 µM in the assay on SK-MEL-5 melanoma, over 100 µM in the assay with SK-MEL-2 melanoma and over 100 µM in the assay on OVCAR-8 ovarian.
Consider `CCCCCCCCCCCCCCCCOCC(Cl)COP(=O)(O)OP(=O)(O)OCC1OC(n2cc(C)c(=O)[nH]c2=O)CC1O` (stereo not given), for which the TGI with MDA-MB-435 is over 100 µM; in the assay on EKVX NSCLC, over 100 µM; with UACC-257 melanoma, over 100 µM; in the assay with HS 578T breast, 86.4 µM; in the assay on SF-295 CNS, over 100 µM; in the assay on RPMI-8226 leukemia, over 100 µM. Further, the TGI was over 100 µM with TK-10 renal; over 100 µM in the assay with SNB-19 CNS; 62.9 µM in the assay on PC-3 prostate; over 100 µM with K-562 leukemia; over 100 µM with ACHN renal; over 100 µM in the assay on KM12 colon. Further, the TGI in the assay with SK-MEL-5 melanoma, in the assay on SK-MEL-2 melanoma and in the assay on OVCAR-8 ovarian was over 100 µM in each case.
